We go through five molecules from publication PMC8954508, “α-Glucosidase and Bacterial β-Glucuronidase Inhibitors from the Stems of Schisandra sphaerandra Staph” (Pharmaceuticals, 2022).

Where two headings read alike, the source gives them in different places.

What all share (assay type): biochemical
Test [1] addresses T1, α-Glucosidase (AGS) (Saccharomyces cerevisiae, UniProt P53341). Put plainly: AGS (α-glucosidase) inhibitory assay. The procedure: (§1) The AGS [23, 24, 25, 26] and BGUS [27] inhibitory activities were evaluated by the methods reported in the literature, respectively.
Test [2] addresses T1, α-Glucosidase (AGS). Nature of the test: Inhibition kinetics against AGS (Lineweaver–Burk plots). Particulars: for mode of inhibition against AGS: Lineweaver–Burk plots; for Ki: AGS, secondary plot of slope versus [I], read-out: Ki (inhibition constant of the enzyme). The procedure:
(§2) The mode of inhibition for the active compounds was determined by the Lineweaver–Burk plot fitted by GraphPad Prism 8.0 software. The Km value and the Vmax value were obtained from the slope and Y-axis intercept of the Lineweaver–Burk plot based on the following equation:(1) Vmax=1/Y−intercept (2) Km=slope× Vmax
(§3) The Ki and Ki’ values were available by secondary plotting of the slope and Y-intercept on the Lineweaver–Burk plot versus the inhibitor [I] through the following equations:(3) Slope=Km/Vmax+Km[I]/VmaxKi (4) Y−intercept=1/Vmax+[I]/VmaxKi′

Test [3] deals with T2, bacterial β-glucuronidase (BGUS) (Escherichia coli, UniProt P05804). Put plainly: BGUS (β-glucuronidase) inhibitory assay. Particulars: in vitro; for IC50: means ± SD. The method, then:
as §1

The target in test [4] is T2, bacterial β-glucuronidase (BGUS). Put plainly: Inhibition kinetics against BGUS (Lineweaver–Burk plots). The method, then:
as §2, §3

Where [5] appears, read: in vitro, means ± SD, read-out: IC50 α-Glucosidase.

T2 sequence (P05804 whole entry): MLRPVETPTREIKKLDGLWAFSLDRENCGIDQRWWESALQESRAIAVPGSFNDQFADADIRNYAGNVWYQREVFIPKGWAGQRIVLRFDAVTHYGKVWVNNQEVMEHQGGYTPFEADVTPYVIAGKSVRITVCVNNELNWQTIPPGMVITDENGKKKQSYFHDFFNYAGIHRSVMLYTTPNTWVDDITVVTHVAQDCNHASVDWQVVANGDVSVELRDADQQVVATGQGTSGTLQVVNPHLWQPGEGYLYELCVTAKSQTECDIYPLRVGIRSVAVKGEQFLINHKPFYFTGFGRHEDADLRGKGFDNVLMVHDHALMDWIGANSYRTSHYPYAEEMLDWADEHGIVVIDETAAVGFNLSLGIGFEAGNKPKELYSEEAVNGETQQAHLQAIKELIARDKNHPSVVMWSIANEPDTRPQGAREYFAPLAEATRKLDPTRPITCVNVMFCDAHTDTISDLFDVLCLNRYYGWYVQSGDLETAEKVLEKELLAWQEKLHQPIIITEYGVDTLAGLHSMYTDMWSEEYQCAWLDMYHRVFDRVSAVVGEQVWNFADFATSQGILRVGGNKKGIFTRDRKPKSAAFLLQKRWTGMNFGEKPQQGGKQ
T1 sequence (P53341 whole entry): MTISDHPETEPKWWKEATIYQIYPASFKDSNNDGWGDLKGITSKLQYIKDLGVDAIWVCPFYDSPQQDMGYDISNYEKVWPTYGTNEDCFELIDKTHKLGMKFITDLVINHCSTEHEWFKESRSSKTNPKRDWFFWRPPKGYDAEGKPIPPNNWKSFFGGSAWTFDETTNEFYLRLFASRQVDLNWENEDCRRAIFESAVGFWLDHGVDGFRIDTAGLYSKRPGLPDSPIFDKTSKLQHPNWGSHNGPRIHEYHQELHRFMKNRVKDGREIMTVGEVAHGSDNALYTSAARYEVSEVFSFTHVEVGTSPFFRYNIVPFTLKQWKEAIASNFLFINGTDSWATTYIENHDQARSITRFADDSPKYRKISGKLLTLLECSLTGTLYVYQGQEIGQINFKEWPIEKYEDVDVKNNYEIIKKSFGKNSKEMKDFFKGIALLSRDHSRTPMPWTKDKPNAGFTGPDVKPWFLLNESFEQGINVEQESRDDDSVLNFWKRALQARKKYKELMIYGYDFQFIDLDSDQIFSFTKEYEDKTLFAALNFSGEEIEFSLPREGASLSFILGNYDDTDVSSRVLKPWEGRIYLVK

On to `C=C(C)[C@@H]1CC[C@@H]2[C@]3(CC[C@]4(C)C(=O)CC[C@@]24C)C[C@]13CCC(=O)OC` [Compound 5, schiglausin L], for which the IC50 (commonly the concentration at which inhibition is half-maximal) in test [1] (setting [5]) is 42.9 ± 1.04 µM. Also, in test [2], the “mode of inhibition against AGS” value is given as “could not be well defined”.

On to `C=C(C)[C@@H]1CC[C@@H]2[C@]3(CC[C@]4(C)[C@@H]([C@H](C)CC/C=C(/C)C(=O)O)CC[C@@]24C)C[C@]13CCC(=O)OC` [Compound 4, 3,4-seco-(24Z)-cycloart-4(28),24-diene-3,26-dioic-3-methyl ester], for which the IC50 in test [1] (setting [5]) came out at 14.1 ± 0.29 µM. In addition, in test [3], the “BGUS inhibitory activity (in words)” value is “weak activity” and the IC50 is 155 ± 4.68 µM. Also, in test [2], the Ki (usually the dissociation constant of the complex between target and ligand, obtained from inhibition or displacement) came out at 7.97 µM; the “mode of inhibition against AGS” value was “competitive inhibitors”.

For `O=C(O)[C@@H](O)[C@H]1OC(=O)[C@H](O)[C@H]1O` [DSL, D-Saccharic 1,4-lactone, reference compound], inhibition in test [3] was half-maximal at 56.9 ± 1.57 µM (IC50).

In the case of `CC1=CCC(C(C)C2CCC3(C)C4CCC5C(C)(C)OC(=O)C=CC56CC46CCC23C)OC1=O` (stereo not shown) [Compound 3, schisanlactone B], the IC50 in test [1] (setting [5]) came out at 29.5 ± 0.7 µM; in test [3], 14.7 ± 0.1 µM. Moreover, the “mode of inhibition against BGUS” value in test [4] is “mixed-type inhibitor”. Further, in test [2], the inhibitory constant (Ki) was 10.5 µM. Further, the “mode of inhibition against AGS” value in test [2] is reported as “mixed-type inhibitors”.

In the case of `CC(=O)OC1CC2=C(CCC3C(=C2)C=CC(=O)OC3(C)C)C2(C)CCC(C(C)C3CC=C(C)C(=O)O3)C12C` (stereo not shown) [Compound 1, Sphaerandralide A], half-maximal inhibition in test [1] (IC50) required 61.5 ± 1.75 µM. Also, in test [2], the inhibitory constant (Ki) was found to be 35.8 µM and the “mode of inhibition against AGS” value is recorded as “mixed-type inhibitors”.
